Results as given in article PMC6977461 (Chemical Science, 2019).
*1 amine or outer side, *2 acyl side, *3 side chain or, on linkers, in order; H or OH if unused. The star is where a group is joined. X1 = C[C@@H](CN*)NC(=O)[C@@H](N)Cc1c[nH]cn1; CO = O=C([*:1])[*:2]

Tests used:
C57BL/6J mice = test: IPGTT in healthy mice 3, 6 or 9 h after i.v. dosing; format: in vivo; conditions: 1 µg per mouse (10 nmol kg-1) i.v., glucose 2 g kg-1 i.p., fasted 9 h, n = 6, versus vehicle
Text: Supérieur et de la Recherche) ethics committees (protocol number 05049-06). For the dose-response study, animal procedures were approved by British Home Office under the UK Animal (Scientific Procedures) Act 1986 (Project Licence 70/7596). Lean male C57Bl/6J mice (6-8 weeks of age, body […]
schedule, lights on at 07:00). Ad libitum access to water and normal chow (RM1, Special Diet Services) was provided unless otherwise stated. Mice were housed in groups of five. For the pharmacokinetics studies performed by TechMedILL service (PCBIS platform, CNRS UMS3286), mice were housed in polycarbonate cages (PCT2L12SHT, Allentown) enriched with play tunnels throughout the […]
environment (22 ± 1 °C) with a relative humidity (50 ± 10 %) and a normal 12 hours light cycle (at 8:00 pm lights off). A standard chow diet (A04, SAFE, France) and tap water were provided ad libitum. […]
After the acclimation period of 5 days, 20-25 g male C57Bl/6J mice 8 weeks old (Charles River laboratories) were randomized into groups (6 mice per group) according to their body weight. The mice were acutely treated with vehicle or 1 µg per mouse (10 nmol kg-1) of oligomers via i.v. injections (formulation: 4 µg mL-1 in PBS 1×) IPGTTs (glucose 2 g kg-1 i.p.) were performed after 3 or 6 hours of […]
(§1) Blood glucose was measured before the administration of […]
as §1

SNAP-tagged human GLP-1R = target: T1, SNAP-tagged human GLP-1R (Homo sapiens, UniProt P43220); test: SNAP-GLP-1R internalization by confocal microscopy in INS-1 832/3 cells; format: cell-based; conditions: 10 nM ligand, 30 min, versus non-ureido peptides
T1 construct: host or cells: INS-1 832/3 cells with endogenous GLP-1R deleted by CRISPR/Cas9
T1 sequence (P43220 24-463): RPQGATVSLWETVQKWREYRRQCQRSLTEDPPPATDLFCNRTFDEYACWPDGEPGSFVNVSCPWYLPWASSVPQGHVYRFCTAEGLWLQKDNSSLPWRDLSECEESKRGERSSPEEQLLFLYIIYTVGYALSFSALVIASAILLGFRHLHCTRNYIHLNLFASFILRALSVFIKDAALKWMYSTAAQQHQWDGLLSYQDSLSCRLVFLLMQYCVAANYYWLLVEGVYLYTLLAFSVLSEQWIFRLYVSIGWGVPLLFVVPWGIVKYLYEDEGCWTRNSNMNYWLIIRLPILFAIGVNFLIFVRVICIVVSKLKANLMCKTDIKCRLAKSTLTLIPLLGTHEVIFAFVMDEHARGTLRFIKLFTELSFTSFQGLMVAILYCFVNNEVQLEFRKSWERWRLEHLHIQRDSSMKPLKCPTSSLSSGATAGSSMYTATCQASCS

GLP-1R [1] = target: T2, GLP-1R (Homo sapiens, UniProt P43220); test: cAMP production functional assay in HEK293 cells transfected with GLP-1R (Method C1); format: cell-based; design: host or cells: HEK-293T
T2 sequence (P43220 24-463): as above
Description:  HEK-293T cells (Multispan inc., lot#.DC1267-062017) were suspended in cell culture media
(DMEM 1X + GlutaMAX (Gibco 31966-021)) complemented with FBS 10% (Sigma Aldrich
 βTC6 cells were suspended in HBSS buffer (Invitrogen) complemented with 20 mM HEPES (pH
In vitro pharmacology on HEK-293T cells (EC50: Method C1)
cells (Multispan inc., lot#.DC1267-062017) was determined by measuring their effects on cAMP
production using the HTRF detection method (performed by UREkA SARL). The cells were distributed
in 384-well microplates at a density of 1.0x10^4 cells/well. Stock solutions of the test compounds or the
reference agonist were prepared at a concentration of 1 mM in DMSO. Then, compounds to be tested
were diluted in cell culture media and transferred to the plate containing the cells to reach final assay

GLP-1R [2] = target: T2, GLP-1R; test: β-arrestin-2 recruitment assay in PathHunter CHO-GLP-1R cells; format: cell-based; design: host or cells: PathHunter CHO-GLP-1R-βarr2 cells; conditions: 30 min stimulation at 37 °C, n = 5, versus non-ureido parents 10 and 13
Description: signal measured at 665 nm by that measured at 620 nm (ratio). The results are expressed as a percent […]
tested in each experiment at several concentrations to generate a concentration-response curve from which its EC50 value and SE are calculated using GraphPad Prism.
In vitro pharmacology on immortalised CHO-GLP-1R cells (EC50: Method C3) PathHunter CHO-GLP-1R cells were stimulated for 30 min at 37°C with indicated concentration of agonist in serum free medium without phosphodiesterase inhibitors. The reaction was terminated by addition of cAMP detection reagents (cAMP Dynamic 2, Cisbio) and read by HTRF.
β-arrestin-2 recruitment assay […]
agonist in serum free medium. The reaction was terminated by addition of PathHunter detection reagents (DiscoverX) and luminescent signal recorded.
Calculation of signal bias
Biased signalling was quantified using a modified form of the operational model.[6] LogR values were calculated for each ligand in each assay, and ∆LogR were determined by subtracting from the […]
Bias was then determined as ∆∆LogR by subtracting ∆LogR for […]

## {X1-CO}-EGTFTSDLSKQLEEEAVRLFIEWLKNGGPSSGAPPSKKKKKK-NH2 [compound 14]
C57BL/6J mice
  blood glucose control, IPGTT 9 h after dosing: strong ability to control blood glucose levels
SNAP-tagged human GLP-1R
  endocytosis of the GLP-1R: noticeably reduced
GLP-1R [1]; HEK-293T cells exogenously expressing human GLP-1R, cAMP by HTRF, 10 min at 37 °C, Method C1, mean, n = 3 (2: n = 6), read-out: EC50 (GLP-1R potency)
  EC50: 1.1 pM
GLP-1R [1]; from EC50 in HEK293 GLP-1R cAMP assay
  Potency (%), percentage of potency compared to GLP-1-NH2: 287%
GLP-1R [2]
  recruitment of β-arrestin to GLP-1R: selectively diminished
